Consider 3 compounds from patent publication US20090076049A1, “Novel Spiro [Imidazolidine-4, 3' -Indole] 2, 2', 5' (1H) Triones for Treatment of Conditions Associated with Vanilloid Receptor 1” (AstraZeneca AB, priority 2006, published 2009).

The term IC50 denotes the concentration at which inhibition is half-maximal.

In this test the target is T1, hVR1 (Homo sapiens, UniProt Q8NER1).
T1 construct: expressed in transfected cells; host or cells: CHO cells, stably transfected
T1 sequence (Q8NER1 whole entry): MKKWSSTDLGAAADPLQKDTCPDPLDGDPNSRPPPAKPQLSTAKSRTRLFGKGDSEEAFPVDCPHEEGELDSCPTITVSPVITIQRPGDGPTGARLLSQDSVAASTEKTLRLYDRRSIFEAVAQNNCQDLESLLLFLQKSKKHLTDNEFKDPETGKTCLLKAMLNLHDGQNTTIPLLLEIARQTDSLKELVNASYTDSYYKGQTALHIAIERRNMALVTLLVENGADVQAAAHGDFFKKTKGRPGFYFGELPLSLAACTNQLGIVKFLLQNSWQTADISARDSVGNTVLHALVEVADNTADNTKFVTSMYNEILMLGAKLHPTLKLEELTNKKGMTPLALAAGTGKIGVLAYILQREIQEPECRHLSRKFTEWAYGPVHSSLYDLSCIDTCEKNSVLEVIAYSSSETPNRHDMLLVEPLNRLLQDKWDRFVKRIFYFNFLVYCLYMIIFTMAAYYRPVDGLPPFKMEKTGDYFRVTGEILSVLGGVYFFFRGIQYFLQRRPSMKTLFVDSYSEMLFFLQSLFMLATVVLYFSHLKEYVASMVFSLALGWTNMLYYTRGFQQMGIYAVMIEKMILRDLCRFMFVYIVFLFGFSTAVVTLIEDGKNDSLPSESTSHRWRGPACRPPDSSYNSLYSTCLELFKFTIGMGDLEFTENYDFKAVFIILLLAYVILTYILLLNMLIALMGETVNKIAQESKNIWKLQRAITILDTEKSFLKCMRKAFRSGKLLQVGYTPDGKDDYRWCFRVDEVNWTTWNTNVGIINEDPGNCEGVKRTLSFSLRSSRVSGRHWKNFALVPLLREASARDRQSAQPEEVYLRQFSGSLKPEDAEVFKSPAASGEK
Nature of the test: hVR1 FLIPR (Fluorometric Image Plate Reader) screening assay, IC50 determination. As to conditions: transfected CHO cells stably expressing hVR1; Fluo-4 calcium signal; agonist 50 nM capsaicin or MES buffer pH 5.2. It is filed as cell-based. As to the method: 1. hVR1 FLIPR (Fluorometric Image Plate Reader) Screening Assay
Transfected CHO cells, stably expressing hVR1 (15,000 cells/well) are seeded in 50 μL media in a black clear bottom 384 plate (Greiner) and grown in a humidified incubator (37° C., 2% CO2), 24-30 hours prior to experiment.
Subsequently, the media is removed from the cell plate by inversion and 2 μM Fluo-4 is added using a multidrop (Labsystems). Following the 40 min dye incubation in the dark at 37° C. and 2% CO2, the extracellular dye present is washed away using an EMBLA (Scatron), leaving the cells in 40 μL of assay buffer (1×HBSS, 10 mM D-Glucose, 1 mM CaCl2, 10 mM HEPES, 10×7.5% NaHCO3 and 2.5 mM Probenecid).
FLIPR Assay—IC50 Determination Protocol
For IC50 determinations the fluorescence is read using FLIPR filter 1 (em […]). A cellular baseline recording is taken for 30 seconds, followed by a 20 μL addition of 10, titrated half-log concentrations of the test compound, yielding cellular concentration ranging from 3 μM to 0.1 nM. Data is collected every 2 seconds for a further 5 min prior to the addition of a VR1 agonist solution: either 50 nM solution of capsaicin or MES (2-[N-morpholino]ethanesulfonic acid) buffer (pH 5.2), by the FLIPR pipettor. The FLIPR continues to collect data for a further 4 min. Compounds having antagonistic properties against the hVR1 will inhibit the increase in intracellular calcium in response to the capsaicin addition. This consequently leading to a reduction in fluorescence signal and providing a reduced fluorescence reading, compared with no compound, buffer controls. Data is exported by the FLIPR program as a sum of fluorescence calculated under the curve upon the addition of capsaicin. Maximum inhibition, Hill slope and IC50 data for each compound are generated.
Consider `O=C1NC(=O)C2(N1)C(=O)N(C/C=C/c1ccc(Cl)c(Cl)c1)c1ccc(OC(F)(F)F)cc12` (stereo not drawn) [Compound 3], for which the IC50 was 3 µM.

On to `CN1C(=O)N(C)C2(C1=O)C(=O)N(C/C=C/c1ccc(Cl)c(Cl)c1)c1ccccc12` (stereo not drawn) [Compound 5, 1′-[(2E)-3-(3,4-dichlorophenyl)prop-2-en-1-yl]-1,3-dimethyl-2H,5H-spiro[imidazolidine-4,3′-indole]-2,2′,5(1′H)-trione], for which the IC50 stood at 2.11 µM. To `COCCN1C(=O)N(CCOC)C2(C1=O)C(=O)N(C/C=C/c1ccc(Cl)c(Cl)c1)c1ccccc12` (stereo not drawn) [Compound 7, 1′-[(2E)-3-(3,4-dichlorophenyl)prop-2-en-1-yl]-1,3-bis(2-methoxyethyl)-2H,5H-spiro[imidazolidine-4,3′-indole]-2,2′,5(1′H)-trione] belongs 3.01 µM.
